Data as given in patent publication US20210093730A1, “BIOMARKERS FOR ANTIBODY-DRUG CONJUGATE MONOTHERAPY OR COMBINATION THERAPY” (Immunomedics, Inc., priority 2019, published 2021).
Entries after “also recorded” stand apart in the source; their conditions may differ. Like-named read-outs stand apart in the source and are kept apart here.

How the values were obtained:
[1] = test system: metastatic triple-negative breast cancer (TNBC); test: Phase I/II clinical trial (NCT01631552) of sacituzumab govitecan in relapsed/refractory metastatic TNBC; format: in vivo, human
Description: Patients with relapsed/refractory TNBC who had previously failed at at least one prior line of therapy were enrolled in a single-arm, multicenter trial (Bardia et al., 2019, N Engl J Med 380:741-51). The present study reports on 108 patients who had failed at least two prior lines of therapy (median three prior therapies) (Bardia et al., 2019, N Engl J Med 380:741-51). […] Of the 108 patients, 107 were female and 1 was male, with a median age of 55. […] Tumor staging was performed by computed tomography (CT) and MRI at baseline, followed up at 8 week intervals from the start of treatment until disease progression.

[2] = test system: platinum-resistant urothelial carcinoma; test: Clinical trial of sacituzumab govitecan in 6 patients with metastatic platinum-resistant urothelial carcinoma (PRUC)
Description: Response was assessed using the Response Evaluation Criteria in Solid Tumors, version 1.1.

[3] = test system: metastatic urothelial cancer; test: Further study of sacituzumab govitecan in metastatic urothelial cancer (mUC), 32 pts enrolled; format: in vivo, human
Text: Response-evaluable pts received ≥2 doses, and had ≥1 post-baseline response assessment.

[4] = Pharmacokinetics in patient serum: ELISA for IgG and intact conjugate, HPLC for SN-38; format: in vivo, human
Description: SN-38 was measured by HPLC.

[5] = Immunogenicity: serum antibody responses to sacituzumab govitecan, the IgG and SN-38 by ELISA in mSCLC patients; format: in vivo, human; conditions: up to 63 doses / up to 22 months of treatment
Description: Positivity required at least 10% of the tumor cells to be stained, with an intensity scored as 1+ (weak), 2+ (moderate), and 3+ (strong). […] Assay sensitivity is 50 ng/mL for the ADC and the IgG, and 170 ng/mL for anti-SN-38 antibody.

[6] = in vivo
[7] = test system: platinum-resistant urothelial carcinoma; conditions: 6 patients; cited from earlier work
[8] = test system: metastatic urothelial cancer; conditions: cited from earlier work
[9] = test system: metastatic small-cell lung cancer; conditions: cited from earlier work
[10] = test system: non-small cell lung cancer (NSCLC); conditions: cited from earlier work
[11] = 36 patients with objective response
[12] = any grade, 108 patients, 10 mg/kg

Substance: sacituzumab govitecan
- response rate among patients who had failed previous checkpoint inhibitor therapy ([1]; 10 mg/kg): 44%
- median duration of response [1, 11]: 7.7 months
- median time to response [1, 11]: 2.0 months
- anemia, grade 3 ([1]; 108 patients, 10 mg/kg): 11%
- complete responses (CR) ([1]; 108 patients, 10 mg/kg): 2.8%
- decreased white blood cell count, grade 4 ([1]; 108 patients, 10 mg/kg): 3%
- diarrhea, grade 3 ([1]; 108 patients, 10 mg/kg): 8%
- fatigue, grade 3 ([1]; 108 patients, 10 mg/kg): 8%
- hyperglycemia, grade 4 ([1]; 108 patients, 10 mg/kg): 1%
- median overall survival ([1]; 108 patients, 10 mg/kg): 13.0 months
- median progression-free survival ([1]; 108 patients, 10 mg/kg): 5.5 months
- nausea, grade 3 ([1]; 108 patients, 10 mg/kg): 6%
- neutropenia, grade 3 ([1]; 108 patients, 10 mg/kg): 26%
- neutropenia, grade 4 ([1]; 108 patients, 10 mg/kg): 16%
- vomiting, grade 3 ([1]; 108 patients, 10 mg/kg): 6%
- response rate (CR+PR) ([1]; 108 patients, >=2 prior lines, 10 mg/kg, local assessment): 33.3%
- anemia, % of patients [1, 12]: 50%
- diarrhea, % of patients [1, 12]: 62%
- fatigue, % of patients [1, 12]: 55%
- nausea, % of patients [1, 12]: 67%
- neutropenia, % of patients [1, 12]: 64%
- vomiting, % of patients [1, 12]: 49%
- patients with long-term responses of more than 12 months ([1]; as of data cutoff): 6 patients
- estimated probability that a patient would exhibit a response ([1]; at 6 months): 59.7%
- estimated probability that a patient would exhibit a response ([1]; at 12 months): 27.0%
- patients who discontinued treatment due to adverse events ([1]; of 108 patients): Three
- grade 4 non-hematologic toxicities ([2]; 6 patients): No grade 4 non-hematologic toxicities were observed
- tolerability ([2]; 6 patients): generally well tolerated
- patients with a clinically significant response ([2]; of 6 patients): 3 patients
- patients with grade 3 toxicities (flank pain and bacteremia) ([2]; of 6 patients): Two
- patients with progressive disease ([2]; of 6 patients): 3 patients
- patients with partial response ([2]; of 6 patients, RECIST 1.1): Two
- reduction in target lesions, patient with progressive disease because of a new lesion ([2]; one patient): 12%
- reduction in target lesions, patient with stable disease ([2]; one patient): 28%
- reduction in target lesions, best responder ([2]; partial response, including liver metastases): 38%
- ORR, pts with 1 line of prior chemotherapy ([3]; 7/13): 53.8%
- ORR ([3]; 25 assessable pts, 8 or 10 mg/kg days 1 and 8 every 21 days): 36%
- grade 3 hypophosphatemia ([3]; 25 pts): 8%
- grade 4 neutropenia ([3]; 25 pts): 16%
- duration of response for CR/PR pts ([3]; 95% CI 4.1-12.9): 5.1 mos
- median PFS ([3]; all patients, 95% CI 4.9-10.7): 7.2 mos
- ORR, pts with 2 to 5 prior therapy lines ([3]; in vivo): 16.7%
- duration of grade 4 neutropenia ([3]; in vivo): < 7 days
- PR among pts with progression after prior IO ([3]; of 4 pts): 1 patients
- complete responses (CR) ([3]; of 25 pts): 1 patients
- partial responses (PR) ([3]; of 25 pts): 8 patients
- pts with stable disease >4 mos ([3]; of the SD pts): 10/11
- clearance of intact conjugate compared with the IgG ([4]; ELISA): cleared more quickly than the IgG
- SN-38 in the serum bound to the IgG ([4]; HPLC, Unbound and TOTAL, non-glucuronidated form): > 95%
- clearance of the conjugate from the serum ([4]; patients): ≤ 3 days
- immunogenicity (antibodies to sacituzumab govitecan, hRS7 antibody or SN-38) [5]: not immunogenic; also recorded: No neutralizing antibodies
- SN-38 released daily [6]: 50%
- clinically significant response [7]: 50%
- CR (complete response) ([8]; 25 assessable patients): 1 patients
- ORR ([8]; 25 assessable patients): 36%
- PR (partial response) ([8]; 25 assessable patients): 8 patients
- ORR, 1 line of prior chemotherapy ([8]; in vivo): 53.8%
- ORR, two or more prior therapies ([8]; in vivo): 16.7%
- median PFS ([8]; in vivo): 7.2 months
- ORR ([9]; 53 mSCLC patients (Gray et al., 2017)): 14%
- median OS ([9]; Gray et al., 2017): 7.5 months
- median PFS ([9]; Gray et al., 2017): 3.7 months
- median response duration ([9]; Gray et al., 2017): 5.7 months
- patients with tumor shrinkage from baseline ([9]; Gray et al., 2017): Sixty
- clinical benefit rate ([10]; 47 patients): 43%
- ORR ([10]; 47 response assessable patients, median three prior therapies): 19%
- median OS ([10]; human, in vivo): 9.5 months
- median PFS ([10]; human, in vivo): 5.2 months
